From patent US7858588B2, “Immunostimulatory oligodeoxynucleic molecules” (Intercell AG, priority 2001, dated 2010)
Entries after “also recorded” stand apart in the source; their conditions may differ.

What was measured:
Format in all cases: in vivo, Mice C57BI/6
[1] = tested on: melanoma-derived peptide TRP-2181-188 (TRP-2181-188-specific T cells); assay: IFN-γ ELISPOT on draining lymph node cells after footpad injection of TRP-2181-188 peptide with ODN; conditions: for TRP-2181-188-specific immune response (number of IFN-γ-producing cells/1×10^6 lymph node cells) with co-injection of poly-L-arginine: ODN 5 nmol/mouse + TRP-2181-188 100 μg/mouse + pR60 100 μg/mouse; for TRP-2181-188-specific immune response (number of IFN-γ-producing cells/1×10^6 lymph node cells) with co-injection of poly-L-arginine / TRP-2181-188-specific immune response (number of IFN-γ-producing cells/1×10^6 lymph node cells): hind footpads; for TRP-2181-188-specific immune response (number of IFN-γ-producing cells/1×10^6 lymph node cells) / TRP-2181-188-specific immune response (IFN-γ-producing cells), FIG. 7-9: ODN 5 nmol/mouse + TRP-2181-188 100 μg/mouse; for TRP-2181-188-specific immune response (number of IFN-γ-producing cells/1×10^6 lymph node cells): no poly-L-arginine, lymph nodes 4 days later; for TRP-2181-188-specific immune response (IFN-γ-producing cells), FIG. 7-9: groups with and without pR 60, 4 days
Method: (§1) Animals were sacrificed 4 days after injection and popliteal lymph nodes were harvested. Lymph nodes were passed through a 70 μm cell strainer and washed twice with DMEM medium (GIBCO BRL) containing 5% fetal calf serum (FCS, SIGMA chemicals). Cells were adjusted to the appropriate cell number in DMEM/5%/FCS. An IFN-γ ELISPOT assay was carried out in triplicates as described (Miyahira et al., 1995). This method is a widely used procedure allowing the quantification of antigen-specific T cells. Lymphocytes were stimulated ex vivo in triplicates with medium (background-control), TRP-2181-188-peptide, an irrelevant peptide OVA257-264, pR 60, U-ODN13 and Concanavalin A (Con A). Spots representing single IFN-γ producing T cells were counted and the number of background spots was substracted from all samples. The high number of spots detected after the stimulation with Con A (data not shown) indicates a good condition of the used lymphocytes. For each experimental group of mice the number of IFN-γ-producing cells/1×10^6 cells are illustrated in FIG. 1, the standard deviation of ex vivo-stimulated triplicates is given.
as §1, with “U-ODN15” for “U-ODN13”, “5,” for “1,”
as §1, with “U-ODN 16, ODN 20” for “pR 60, U-ODN13”, “6,” for “1,”
Animals were sacrificed 4 days after injection and popliteal lymph nodes were harvested. Lymph nodes were passed through a 70 μm cell strainer and washed twice with DMEM medium (GIBCO BRL) containing 5% fetal calf serum (FCS, SIGMA chemicals). Cells were adjusted to the appropriate cell number in DMEM/5%/FCS. An IFN-γ ELISPOT assay was carried out in triplicates as described (Miyahira et al., 1995). This method is a widely used procedure allowing the quantification of antigen-specific T cells. […]

[2] = tested on: ovalbumin-derived peptide OVA257-264; assay: IFN-γ ELISPOT on draining lymph node cells after footpad injection of OVA257-264 peptide with ODN; conditions: ODN 5 nmol/mouse + OVA257-264 300 μg/mouse, no pR60, 4 days
Method: as §1, with “duplicates” for “triplicates”, “OVA257-264 peptide,” for “TRP-2181-188-peptide,”, “TRP-2181-188,” for “OVA257-264,”, “3,” for “1,”

[3] = tested on: mouse mastocytoma-derived peptide P1A35-43; assay: IFN-γ ELISPOT on draining lymph node cells after footpad injection of P1A35-43 peptide with ODN
Method: as §1, with “P1A35-43 peptide,” for “TRP-2181-188-peptide,”, “CSP (SYVPSAEQI, SEQ ID NO:18),” for “OVA257-264,”, “U-ODN 13” for “U-ODN13”, “spots/1×10^6” for “IFN-γ-producing cells/1×10^6”, “4,” for “1,”

In the case of hhh wdu dhh h [U-ODN 16], the “TRP-2181-188-specific immune response (IFN-γ-producing cells), 10mer cocktail” value ([1]; ODN 10 nmol/mouse + TRP-2181-188 100 μg/mouse, no pR60, compared to peptide alone or with ODN 20, 4 days) is reported as “strong immune response”.

In the case of nhh hhh wdu dhh hhh hhh wn [U-ODN 15], the “TRP-2181-188-specific immune response (IFN-γ-producing cells) at 10 times less ODN” value ([1]; ODN 0.5 nmol/mouse + TRP-2181-188 100 μg/mouse, 4 days) is reported as “strong immune response could be induced”, the “TRP-2181-188-specific immune response (number of IFN-γ-producing cells/1×10^6 lymph node cells) with co-injection of poly-L-arginine” value ([1]; 4 days) is reported as “does not influence this strong response; also recorded: strong immune response” and the “TRP-2181-188-specific immune response (number of IFN-γ-producing cells/1×10^6 lymph node cells)” value [1] is reported as “strongly enhances; also recorded: strong immune response”.

For “tcc atg acu ttc ctg atg ct [U-ODN 13] (TCCATGACUTTCCTGATGCT; chemistry not given here)”, the “TRP-2181-188-specific immune response (number of IFN-γ-producing cells/1×10^6 lymph node cells) with co-injection of poly-L-arginine” value ([1]; 4 days) was “strong immune response; also recorded: does not influence this strong response”, the “TRP-2181-188-specific immune response (number of IFN-γ-producing cells/1×10^6 lymph node cells)” value [1] was “strong immune response; also recorded: strongly enhances” and the “TRP-2181-188-specific T cells / immune response compared to CpG-ODN 1668” value ([1]; ODN 5 nmol/mouse vs CpG 1668 5 nmol/mouse, each with TRP-2181-188, 4 days) was “higher number”. The “OVA257-264-specific immune response (IFN-γ-producing cells/1×10^6 lymph node cells)” value [2] was “induces an immune response”, the “P1A35-43-specific immune response with co-injection of poly-L-arginine” value ([3]; ODN 5 nmol/mouse + P1A35-43 100 μg/mouse + pR60 100 μg/mouse, 4 days) was “further enhanced” and the “P1A35-43-specific immune response (IFN-γ-producing cells/1×10^6 lymph node cells)” value ([3]; ODN 5 nmol/mouse + P1A35-43 100 μg/mouse, no pR60, 4 days) was “strong immune response”.

For “tcc atg acu ttc ctg atg ct [U-ODN 13b] (DNA TCCATGACUTTCCTGCTGATGCT; DNA, backbone and methylation of C not given here; further chemistry not fully specified)”, the “TRP-2181-188-specific immune response (number of IFN-γ-producing cells/1×10^6 lymph node cells) with co-injection of poly-L-arginine” value ([1]; 4 days) was “only after co-injection of poly-L-arginine a strong peptide-specific immune response is induced; also recorded: only upon co-injection of poly-L-arginine a high immune response was induced”.

For “uau aua uau aua uau aua uau aua ua (UAUAUAUAUAUAUAUAUAUAUAUAUA; DNA, all phosphorothioate, T or U not given here) [U-ODN 21]”, the “TRP-2181-188-specific immune response (IFN-γ-producing cells), FIG. 7-9” value (“TRP-2181-188-specific immune response … FIG. 7-9” below) [1] was “generation of specific immune responses”.

“uiu iui uiu iui uiu iui uiu iui ug [U-ODN 22]” was tested, and the “TRP-2181-188-specific immune response … FIG. 7-9” value [1] was “generation of specific immune responses”.

In the case of “uuu uuu uuu uuu uuu uuu uuu uuu ut (UUUUUUUUUUUUUUUUUUUUUUUUUT; DNA, all phosphorothioate, T or U not given here) [U-ODN 24]”, the “TRP-2181-188-specific immune response … FIG. 7-9” value [1] is reported as “generation of specific immune responses”.
